Experimental data taken from patent US20240383900A1, “SUBSTITUTED PYRAZOLO [1,5-A]PYRIMIDINE-7-AMINE COMPOUNDS AS CDK INHIBITORS AND THEIR THERAPEUTIC USE” (Carrick Therapeutics Limited, priority 2021, published 2024).
Like-named read-outs stand apart in the source and are kept apart here.

Assays:
A673 cells [1] = experiment: Cytotoxicity in A673 cells (Cell Titer Glo viability); format: cell-based; conditions: for Ratio of Biochemical Potency:Cellular Potency: CDK12 IC50 / A673 IC50; for IC50: Homo sapiens
Protocol: (§1) Cells were plated in 96-well plates at a density of […] viable cells per well in 200 μL fully supplemented growth medium (DMEM+10% heat inactivated foetal bovine serum) and incubated for 24 hours in standard tissue culture conditions. Compounds, including MLN4924, were solubilised in DMSO and then diluted in fully supplemented growth medium at 2× their final assay concentration such that the final DMSO concentration was 0.1%. Growth medium in the assay plates was replaced with 50 μL of growth medium containing 2×MLN4924 (final assay concentration: 30 nM, where tested) or vehicle only and 50 μL of growth medium containing a 2× compound concentration series or vehicle only such that each compound was at 1× final assay concentration in 100 μL.
Cells were then incubated for 72 hours in standard tissue culture conditions before viability was assessed using 50 μL Cell Titer Glo reagent (Promega) per well and luminescence measured on an EnVision plate reader. Data were normalised to vehicle control (100%) and cells treated with 0.1% Triton x-100 for 1 hour before viability measurement (0%; full cell kill). […] Viability curves generated in the presence of MLN4924 were normalised and fixed to controls treated with MLN4924.

Human CDK12 wt/CycK = Human CDK12 wt/CycK (Homo sapiens (Human), UniProt Q9NYV4); experiment: Radiometric protein kinase assay (33PanQinase Activity Assay), CDK12; format: biochemical; conditions: for CDK7/CDK12: ratio of CDK7 IC50 to CDK12 IC50, greater than 1 indicates selectivity for CDK12
Protocol: (§2) A radiometric protein kinase assay (^33PanQinase® Activity Assay) was used for measuring the kinase activity of the two protein kinases (CDK12/CDK7). All kinase assays were performed in 96-well FlashPlates™ from PerkinElmer (Boston, MA, USA) in a 50 μL reaction volume.
(§3) The reaction cocktail was pipetted in four steps in the following order: • 20 μL of assay buffer (standard buffer) • 5 μL of ATP solution (in H2O) • 5 μL of test compound (in 10% DMSO) • 10 μL of substrate/10 μL of enzyme solution (premixed)
(§4) The reaction mixture was incubated at 30° C. for 60 min and then stopped by the addition of 2% (v/v) H3PO4. Plates were aspirated and washed two times with 200 μL 0.9% (w/v) NaCl. Incorporation of ^33Pi was determined with a microplate scintillation count (Microbeta, Wallac).
The fitting method used was a least-squares fit.

Human CDK7/CycH/MAT1 = Human CDK7/CycH/MAT1 (Homo sapiens (Human), UniProt P50613); experiment: Radiometric protein kinase assay (33PanQinase Activity Assay), CDK7; format: biochemical; conditions: ATP 3 μM
Protocol: Additionally for the CDK7 assay: • Human CDK7/CycH/MAT1 (ProQinase, 0366-0360-4—Lot 2). • RBER-CHKtide (ProQinase, 0581-0000-5—Lot 106).
as §2, §3
For the CDK7 assay, a reaction mixture (50 μL) containing the following components was prepared: • 70 mM HEPES-NaOH (pH 7.5); • sodium orthovanadate (3 μM); • PEG-20000 (50 μg/mL); • DTT (1.2 mM); • MgCl2 (3 mM); • MnCl2 (3 mM); • purified human CDK7/CycH/MAT1 (3.3 nM—Lot 02); • RBER-CHKtide substrate (40 μg/mL—Lot 106); • ATP (3 μM); • [γ-33P]-ATP (approx. 8×10^5 cpm per well); and • test compound at the appropriate concentration such that the final concentration of DMSO was […].
as §4
The residual activities for each concentration and the compound IC50 values were calculated using Quattro Workflow V3.1.1 (Quattro Research GmbH, Munich, Germany). The fitting model for the IC50 determinations was “Sigmoidal response (variable slope)” with parameters “top” fixed at 100% and “bottom” at 0%. The fitting method used was a least-squares fit.

A673 cells [2] = experiment: A673 cytotoxic potency shift in the presence of MLN4924 (cyclin K degrader activity); format: cell-based; conditions: 30 nM MLN4924, 72 hours
Protocol: Inhibition of cell viability by test compounds was assessed in A673 cells (ATCC CRL-1598) and the compound mode of action was attributed to a “molecular-glue”/cyclin K-degradation mechanism by probing for a loss of compound potency in the presence of the NEDD8-activating enzyme inhibitor, MLN4924.
as §1
Cells were then incubated for 72 hours in standard tissue culture conditions before viability was assessed using 50 μL Cell Titer Glo reagent (Promega) per well and luminescence measured on an EnVision plate reader. Data were normalised to vehicle control (100%) and cells treated with 0.1% Triton x-100 for 1 hour before viability measurement (0%; full cell kill). IC50 values were determined using a semi-logistic curve fit with parameters “top” fixed at 100% and “bottom” at or below 0%. Viability curves generated in the presence of MLN4924 were normalised and fixed to controls treated with MLN4924.

[3] = A673, read-out: Cellular Potency IC50 (nM) (in A673 cells)
[4] = A673 cells, 72 hours, read-out: A673 IC50
[5] = ATP 0.3 μM, read-out: CDK12 IC50
[6] = read-out: CKD12 Biochemical Potency IC50

Human CDK12 wt/CycK, sequence (Q9NYV4 whole entry): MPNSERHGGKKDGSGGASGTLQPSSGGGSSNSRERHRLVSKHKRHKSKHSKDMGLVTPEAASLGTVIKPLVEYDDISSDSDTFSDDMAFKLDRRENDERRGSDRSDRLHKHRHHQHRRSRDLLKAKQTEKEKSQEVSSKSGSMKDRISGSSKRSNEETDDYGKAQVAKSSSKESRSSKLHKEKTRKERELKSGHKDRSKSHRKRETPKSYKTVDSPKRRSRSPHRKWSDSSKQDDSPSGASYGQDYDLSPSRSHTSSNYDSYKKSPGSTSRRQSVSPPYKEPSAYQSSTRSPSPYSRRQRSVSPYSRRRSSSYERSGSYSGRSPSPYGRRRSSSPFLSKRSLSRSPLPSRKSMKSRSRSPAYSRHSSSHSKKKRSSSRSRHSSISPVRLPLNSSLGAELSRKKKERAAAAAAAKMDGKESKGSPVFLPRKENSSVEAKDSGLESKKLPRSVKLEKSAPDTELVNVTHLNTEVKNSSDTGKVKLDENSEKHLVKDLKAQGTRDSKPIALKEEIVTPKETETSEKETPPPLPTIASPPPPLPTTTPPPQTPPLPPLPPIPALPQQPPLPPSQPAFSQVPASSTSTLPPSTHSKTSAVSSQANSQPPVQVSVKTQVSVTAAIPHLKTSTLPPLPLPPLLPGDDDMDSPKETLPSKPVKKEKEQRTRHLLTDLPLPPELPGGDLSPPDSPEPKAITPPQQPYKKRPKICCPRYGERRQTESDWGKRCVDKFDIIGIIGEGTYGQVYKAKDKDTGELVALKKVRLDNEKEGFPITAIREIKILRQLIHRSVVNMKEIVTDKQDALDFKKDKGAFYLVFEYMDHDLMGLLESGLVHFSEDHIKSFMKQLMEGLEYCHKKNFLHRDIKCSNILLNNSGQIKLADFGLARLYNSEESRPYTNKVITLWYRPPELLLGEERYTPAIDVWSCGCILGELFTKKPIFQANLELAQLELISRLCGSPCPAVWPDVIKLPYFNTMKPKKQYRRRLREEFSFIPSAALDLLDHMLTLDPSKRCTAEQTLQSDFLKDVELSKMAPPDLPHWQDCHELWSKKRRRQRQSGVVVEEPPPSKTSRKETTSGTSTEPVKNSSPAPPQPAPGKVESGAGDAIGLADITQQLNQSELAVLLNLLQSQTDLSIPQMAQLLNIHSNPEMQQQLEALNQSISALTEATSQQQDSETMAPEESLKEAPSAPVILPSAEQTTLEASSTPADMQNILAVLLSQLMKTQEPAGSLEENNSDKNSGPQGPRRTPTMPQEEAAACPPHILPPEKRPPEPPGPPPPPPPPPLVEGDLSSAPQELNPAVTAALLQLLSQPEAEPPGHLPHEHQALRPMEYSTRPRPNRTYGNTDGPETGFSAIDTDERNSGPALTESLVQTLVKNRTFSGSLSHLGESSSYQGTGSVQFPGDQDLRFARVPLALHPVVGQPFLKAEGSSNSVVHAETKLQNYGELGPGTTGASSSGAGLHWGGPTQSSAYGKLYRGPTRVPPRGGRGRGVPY
Human CDK12 wt/CycK, sequence (O75909 whole entry partner): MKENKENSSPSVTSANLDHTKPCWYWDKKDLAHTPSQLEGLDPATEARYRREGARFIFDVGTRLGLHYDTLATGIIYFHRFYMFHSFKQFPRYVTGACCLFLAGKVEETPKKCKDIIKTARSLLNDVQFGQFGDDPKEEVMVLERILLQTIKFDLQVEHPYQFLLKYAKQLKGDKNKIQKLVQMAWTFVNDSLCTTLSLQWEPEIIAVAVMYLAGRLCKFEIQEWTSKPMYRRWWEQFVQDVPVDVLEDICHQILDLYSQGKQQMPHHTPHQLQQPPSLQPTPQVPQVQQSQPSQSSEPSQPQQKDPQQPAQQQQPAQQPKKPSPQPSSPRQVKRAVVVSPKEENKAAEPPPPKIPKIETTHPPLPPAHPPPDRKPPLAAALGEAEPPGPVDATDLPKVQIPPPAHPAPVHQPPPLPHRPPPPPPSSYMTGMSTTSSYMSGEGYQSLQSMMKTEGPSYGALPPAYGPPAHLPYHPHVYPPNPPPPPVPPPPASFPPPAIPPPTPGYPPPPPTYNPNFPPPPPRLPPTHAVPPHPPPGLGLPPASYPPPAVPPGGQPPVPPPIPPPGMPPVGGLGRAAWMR
Human CDK7/CycH/MAT1, sequence (P50613 whole entry): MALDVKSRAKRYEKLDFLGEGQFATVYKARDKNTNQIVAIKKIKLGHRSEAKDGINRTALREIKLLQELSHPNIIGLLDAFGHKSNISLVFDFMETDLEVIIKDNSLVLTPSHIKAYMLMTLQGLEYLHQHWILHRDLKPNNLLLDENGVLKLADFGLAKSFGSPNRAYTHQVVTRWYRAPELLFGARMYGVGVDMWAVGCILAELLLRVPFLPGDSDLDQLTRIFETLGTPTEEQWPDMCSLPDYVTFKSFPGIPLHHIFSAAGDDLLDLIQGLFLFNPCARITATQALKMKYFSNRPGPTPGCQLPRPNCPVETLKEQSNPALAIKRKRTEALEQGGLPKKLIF
Human CDK7/CycH/MAT1, sequence (P51946 whole entry partner): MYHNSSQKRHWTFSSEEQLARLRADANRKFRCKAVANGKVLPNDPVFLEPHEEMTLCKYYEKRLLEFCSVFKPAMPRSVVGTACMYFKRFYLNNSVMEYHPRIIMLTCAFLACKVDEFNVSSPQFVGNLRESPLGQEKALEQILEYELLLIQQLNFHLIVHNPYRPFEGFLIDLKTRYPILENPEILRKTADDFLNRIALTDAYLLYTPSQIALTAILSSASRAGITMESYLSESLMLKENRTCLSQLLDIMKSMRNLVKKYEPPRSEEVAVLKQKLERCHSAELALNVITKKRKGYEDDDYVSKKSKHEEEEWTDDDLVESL
Human CDK7/CycH/MAT1, sequence (P51948 whole entry partner): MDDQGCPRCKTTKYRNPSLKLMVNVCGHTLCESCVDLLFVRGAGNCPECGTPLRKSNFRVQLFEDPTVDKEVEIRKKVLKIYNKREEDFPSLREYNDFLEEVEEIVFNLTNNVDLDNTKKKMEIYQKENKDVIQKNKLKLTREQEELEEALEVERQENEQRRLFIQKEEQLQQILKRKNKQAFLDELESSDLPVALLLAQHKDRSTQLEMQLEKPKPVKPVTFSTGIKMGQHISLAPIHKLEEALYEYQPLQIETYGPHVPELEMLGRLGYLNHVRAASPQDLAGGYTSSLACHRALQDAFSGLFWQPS

| SMILES | Ratio of Biochemical Potency:Cellular Potency (A673 cells [1]) | IC50 (A673 cells [1]; [3]) [nM] | IC50 (A673 cells [1]; [4]) [nM] | IC50 (Human CDK12 wt/CycK; [5]) [nM] | CDK7/CDK12 (Human CDK12 wt/CycK) | IC50 (Human CDK12 wt/CycK; [6]) [nM] | IC50 (Human CDK7/CycH/MAT1) [nM] | Cyclin K Degrader Activity (A673 potency shift + MLN4924) (A673 cells [2]) |
| --- | --- | --- | --- | --- | --- | --- | --- | --- |
| CC(C)c1cnn2c(NCc3ccc(-c4ccccc4)cc3)cc(NC[C@H]3CCNC[C@@H]3O)nc12 [PPA-004, (3R,4R)-4-(((7-(([1,1′-biphenyl]-4-ylmethyl)amino)-3-isopropylpyrazolo[1,5-a]pyrimidin-5-yl)amino)methyl)piperidin-3-ol] | 22.70 | 6.3 | 6.3 | 143 | 4.0 | 143 | 576 | +++ (>5 fold change.) |
| O[C@H]1CNCC[C@@H]1CNc1cc(NCc2ccc(-n3cccn3)cc2)n2ncc(C3CC3)c2n1 [PPA-009] | 42.31 | 1.3 | 1.3 | 55 | 3.9 | 55 | 212 | ++ (>2 and ≤5 fold change.) |
| O[C@H]1CNCC[C@@H]1CNc1cc(NCc2ccc(-c3nccs3)cc2)n2ncc(C3CC3)c2n1 [PPA-018] | 43.33 | 0.9 | 0.9 | 39 | 2.7 | 39 | 106 | +++ (>5 fold change.) |
| O[C@H]1CNCC[C@@H]1CNc1cc(NCc2ccc(-c3ncccn3)cc2F)n2ncc(C3CC3)c2n1 [PPA-067] | 25.00 | 2.6 | 2.6 | 65 | 8.6 | 65 | 562 | – |
| CCc1cnn2c(NCc3ccc(-c4ccccn4)cc3F)cc(NC[C@H]3CCNC[C@@H]3O)nc12 [PPA-068] | 28.00 | 1.5 | 1.5 | 42 | 7.7 | 42 | 323 | – |
| F[C@@H]1CNC[C@H]1Oc1cc(NCc2ccc(-c3ccccn3)cc2)n2ncc(C3CC3)c2n1 [PPA-073] | 1.72 | 19.2 | 19.2 | 33 | 16.0 | 33 | 529 | – |
| O[C@H]1CNCC[C@@H]1CNc1cc(NCc2ccc(-c3ccccn3)cc2F)n2ncc(Cl)c2n1 [PPA-074] | 32.86 | 0.7 | 0.7 | 23 | 15.2 | 23 | 350 | – |
| O=C1C[C@H](Nc2cc(NCc3ccc(-c4ccccn4)cc3)n3ncc(C4CC4)c3n2)CN1 [PPA-075] | 25.44 | 5.7 | 5.7 | 145 | 32.6 | 145 | 4720 | – |
| O[C@H]1CNCC[C@@H]1CNc1cc(NCc2c(F)cc(-c3ccccc3)cc2F)n2ncc(C3CC3)c2n1 [PPA-076] | <14.9 | > 100 | > 100 | 1490 | 1.5 | 1490 | 2250 | – |
| c1ccc(-c2ccc(CNc3cc(N4CCNC5(CC5)C4)nc4c(C5CC5)cnn34)cc2)nc1 [PPA-077] | 5.47 | 7.5 | 7.5 | 41 | 33.9 | 41 | 1390 | – |
| N[C@H]1CC(=O)N(c2cc(NCc3ccc(-c4ccccn4)cc3)n3ncc(C4CC4)c3n2)C1 [PPA-078] | 19.64 | 30.2 | 30.2 | 593 | 10.5 | 593 | 6240 | – |
| c1ccc(-c2ccc(CNc3cc(-c4ccn[nH]4)nc4c(C5CC5)cnn34)cc2)nc1 [PPA-079] | <11.9 | > 100 | > 100 | 1190 | – | 1190 | > 30000 | – |
| N#Cc1cnn2c(NCc3ccc(-c4ccccc4)cc3)cc(NC[C@H]3CCNC[C@@H]3O)nc12 [PPA-081] | 7.50 | 7.6 | 7.6 | 57 | 6.0 | 57 | 344 | – |
| CCc1cnn2c(NCc3ccc(-c4ccccc4)cc3)cc(NC[C@H]3CCNC[C@@H]3O)nc12 [PPA-082] | 4.58 | 9.6 | 9.6 | 44 | 2.8 | 44 | 125 | – |
| O[C@H]1CNCC[C@@H]1CNc1cc(NCc2ccc(-c3ccccc3)cc2)n2ncc(Cl)c2n1 [PPA-083] | 7.11 | 4.5 | 4.5 | 32 | 3.7 | 32 | 118 | – |
| c1ccc(-c2ccc(CNc3cc(N4CC5(CNC5)C4)nc4c(C5CC5)cnn34)cc2)nc1 [PPA-084] | 15.28 | 73.3 | 73.3 | 1120 | 12.5 | 1120 | 14000 | – |
| N#Cc1cnn2c(NCc3ccc(-c4ncccn4)cc3)cc(N[C@H]3CCCNC3)nc12 [PPA-094] | – | 0.9 | 1.9 | – | – | – | – | +++ (>5 fold change.) |
| Cc1n[nH]cc1-c1cc(NCc2ccc(-c3ccccn3)cc2)n2ncc(C3CC3)c2n1 [PPA-095] | – | 43.5 | 4.7 | – | – | – | – | + (>1 and ≤2 fold change.) |
| Cc1ncccc1-c1cc(NCc2ccc(-c3ccccn3)cc2)n2ncc(C3CC3)c2n1 [PPA-096] | – | 14.9 | 7.6 | – | – | – | – | +++ (>5 fold change.) |
| c1cnn(-c2ccc(CNc3cc(OC4CNC4)nc4c(C5CC5)cnn34)cc2)c1 [PPA-097] | – | 3.5 | 0.4 | – | – | – | – | +++ (>5 fold change.) |
| c1csc(-c2ccc(CNc3cc(N[C@H]4CCNC4)nc4c(C5CC5)cnn34)cc2)n1 [PPA-098] | – | 8.1 | 3.2 | – | – | – | – | +++ (>5 fold change.) |
| c1cnn(-c2ccc(CNc3cc(N[C@H]4CCCNC4)nc4c(C5CC5)cnn34)cc2)c1 [PPA-099] | – | 1.2 | 0.9 | – | – | – | – | ++ (>2 and ≤5 fold change.) |
| c1ccc(-c2ccc(CNc3cc(C4CCNCC4)nc4c(C5CC5)cnn34)cc2)nc1 [PPA-100] | – | 1.5 | 43.5 | – | – | – | – | +++ (>5 fold change.) |
